Data as given in patent publication US10662214B2, “Compound of 4′-thionucleoside, as well as preparation method therefor, pharmaceutical composition thereof and application thereof” (Sichuan Kelun-Biotech Biopharmaceutical Co., Ltd., priority 2015, dated 2020).
“Also recorded” adds a separate entry of the source.

Experiments:
[1] = system: gastric cancer cell NCI-N87; assay: CCK-8 inhibition of proliferation, NCI-N87; format: cell-based, human
Description: (§1) The tumor cell lines employed in the present experiment were gastric cancer cell NCI-N87 (obtained from Guangzhou Jennio Biological Technology Co., Ltd.), colorectal cancer cell HCT-116 (obtained from Chengdu Center for Safety Evaluation of Drugs), colorectal cancer cell HCT-15 and pancreatic cancer cell BxPC-3 (both obtained from ATCC, US).
(§2) Each of the cell lines is cultured in a corresponding culture medium (RPMI-1640, IMDM and L-15 culture medium (manufacturer: Gibco)) supplemented with 10% heat inactivated Fetal Bovine Serum (manufacturer: Sigma), in an incubator at 37° C. and 5% CO2.
(§3) For each type of tumor cells, a blank group, a vehicle group (containing 1‰ DMSO) and 8 groups with a test compound at concentrations of 5 nM, 10 nM, 50 nM, 100 nM, 500 nM, 1000 nM, 5000 nM, and 10000 nM (with each concentration in triplicate) were set.
(§4) Appropriate amounts of test compounds were weighted, and dissolved in DMSO (cell culture grade, Sigma) to prepare stock solutions of various concentration gradients according to desired concentrations. During incubation, they were diluted by 1000 times as necessary, and incubation solutions with various drug concentrations were prepared (compound stock solution:medium containing 2% FBS=1:1000).
(§5) The experiment was performed according to a CCK-8 method as described below. Cancer cells to be tested were seeded in a 96-well culture plate at a concentration of 5˜10×10^4/mL (100 μL/well), followed by incubation at 37° C. and 5% CO2 for 24 h. The medium was discarded, and incubation solutions with different drug concentrations (200 μL) were respectively added to each well, and the cells were further incubated for 72 h. After the incubation, a CCK-8 solution (20 μL/well) was added to each well to be tested, and the incubation was continued for 4 h in the incubator. OD values at two wavelengths (Detection wavelength: 450 nm, and reference wavelength: 650 nm) were determined on a multifunctional fully-automatic microplate reader.
(§6) The inhibitory rate of tumor cell growth was calculated according to the following formula: Inhibitory rate=[(ODvehicle−ODblank)−(ODdrug−ODblank)]/(ODvehicle−ODblank)*100%
(§7) Based on the inhibitory rate, a concentration-inhibitory rate curve was fit using GraphPad prism 5.0 software, and IC50 was calculated.

[2] = Oral toxicity test in mice (administration for 7 days); format: in vivo; conditions: once per day for 7 days
Description: Normal Male and female Kunming mice (SPF grade, obtained from Laboratory Animal Center in Sichuan Academy of Chinese Medicine Science) were randomized by weight into groups. The test compound and vehicle control were formulated according to Experimental example 2. The dosage volume was 10 mL/kg, and the administration was performed by oral gavage, once per day for 7 consecutive days.

[3] = system: gastric cancer cell NCI-N87; assay: Subcutaneous xenograft of gastric cancer cell NCI-N87 in nude mice (Experimental example 2); format: in vivo; conditions: for TGI (%): twice a week for 3 weeks; for Body weight change: 14 days after last administration vs beginning; for Tumor regression, CR (complete tumor regression): animals out of 8
Description: (§9) This experimental example was used for the evaluation of the effectiveness of the compounds of the present invention in inhibiting the proliferation of a subcutaneous xenograft of human tumor cells via various routes of administration.
(§10) Gastric cancer cell NCI-N87 and colorectal cancer cell HCT-116 were cultured as a monolayer in vitro, and the culture conditions were RPMI-1640 culture medium supplemented with 10% heat inactivated Fetal Bovine Serum, and incubation in an incubator at 37° C. and 5% CO2. The cells were subcultured by treatment with trypsin-EDTA digestion.
(§11) The tumor cells were respectively inoculated into BALB/c nude mice (SPF grade, female, 16-18 g per mouse, about 6 to 8 weeks old, Beijing Vital River Laboratory Animal Technology Co., Ltd.).
(§12) Each nude mouse was inoculated with about 2.5×10^6 HCT-116 tumor cells or about 3×10^6 NCI-N87 tumor cells (suspended in 0.1 ml PBS) subcutaneously into the underarm of the right flank. After the inoculated tumor reached a size in the range of about 100-200 mm^3, nude mice bearing a tumor that is too small (smaller than 100 mm^3) or too big (bigger than 200 mm^3) were removed from the study, and the remaining ones were randomized into groups.
(§13) Sulfobutyl ether-β-cyclodextrin (SE-β-CD) was formulated with physiological saline to form a 10% solution, which was then filtered through a 0.22 μm sterile filter for later use.
(§14) An appropriate amount of the test compound was weighted, and added in DMSO. The resultant solution was vortexed to uniformity, and the 10% solution of SE-β-CD was added according to the desired concentration. The solution was vortexed to uniformity, and the final concentration of DMSO was adjusted to 5%. A gemcitabine injection (a positive control) was directly diluted to the desired concentration with physiological saline. A 10% solution of SE-β-CD containing 5% DMSO was prepared as a vehicle control.
(§15) Mice bearing a tumor having a volume of about 100-200 mm^3 were selected, and randomized into 5 groups (8 mice per group). The dosing volume was 10 mL/kg, and the administration (intravenous administration (i.v.) or oral administration (p.o.)) was performed twice a week for 3 weeks. The tumor volume and body weight were measured twice a week after the administration, and the mortality of animals was observed every day.
(§16) The diameter of a tumor was measured, and the tumor volume was calculated according to the following formula: V=0.5a×b^2, wherein a and b respectively represent the major and minor diameters of a tumor. The anti-tumor effect was evaluated by the tumor growth inhibition (TGI) (%). TGI (%)=[1−(VT-end−VT-start)/(VC-end−VC-start)]*100%
(§17) The body weight of an animal was measured twice a week.

[4] = system: colorectal cancer cell HCT-116; assay: Subcutaneous xenograft of colorectal cancer cell HCT-116 in nude mice (Experimental example 2); conditions: for TGI (%): twice a week for 3 weeks; for Body weight change: 14 days after last administration vs beginning; for Tumor regression, CR (complete tumor regression) / Tumor regression, PR (partial tumor regression): animals out of 8
Description: as §9, §10, §11, §12, §13, §14, §15, §16, §17

[5] = system: human pancreatic cancer cell Capan-1; assay: Subcutaneous xenograft of human pancreatic cancer cell Capan-1 in a nude mouse (Experimental example 5); format: in vivo; conditions: once every 3 days, 6 times
Description: According to methods similar to those in sections 1 to 2 in Experimental example 2, pancreatic cancer cell Capan-1 was cultured as a monolayer in vitro, and inoculated, and the animals were randomized into groups.
Samples were prepared as described in Experimental example 2.
Mice bearing a tumor having a volume of 100-200 mm^3 were selected, and randomized into 7 groups (7 mice per group).
(§8) For statistical calculations of the test indexes, please refer to Experimental example 2.

[6] = system: colorectal cancer cell HCT-116; assay: CCK-8 inhibition of proliferation, HCT-116; format: cell-based, human
Description: as §1, §2
For each type of tumor cells, a blank group, a vehicle group (containing 1‰ DMSO) and 8 groups with a test compound at concentrations of 5 nM, 10 nM, 50 nM, 100 nM, 500 nM, 1000 nM, 5000 nM, and 10000 nM (with each concentration in triplicate) were set. […]
The experiment was performed according to a CCK-8 method as described below. […] OD values at two wavelengths (Detection wavelength: 450 nm, and reference wavelength: 650 nm) were determined on a multifunctional fully-automatic microplate reader.
as §6, §7

[7] = system: human pancreatic cancer cell BxPC-3; assay: Subcutaneous xenograft of human pancreatic cancer cell BxPC-3 in a nude mouse (Experimental example 3); format: in vivo; conditions: once every 3 days, 4 times
Description: According to methods similar to those in sections 1 to 2 in Experimental example 2, pancreatic cancer cell BxPC-3 was cultured as a monolayer in vitro, and inoculated, and the animals were randomized into groups.
An appropriate amount of the test compound was weighted out, and added in DMSO. The 10% solution of SE-β-CD was then added according to the desired concentration, and the final concentration of DMSO was adjusted to 2.5%. A gemcitabine injection (a positive control) was diluted to the desired concentration with physiological saline. A 10% solution of SE-β-CD containing 2.5% DMSO was prepared as a vehicle control.
Mice bearing a tumor having a volume of 100-200 mm^3 were selected, and randomized into 14 groups (7 mice per group). The dosing volume was 20 mL/kg, and the administration (intravenous administration (i.v.)) was performed once every 3 days, for 4 times in total.
as §8

[8] = system: colorectal cancer cell HCT-15; assay: CCK-8 inhibition of proliferation, HCT-15; format: cell-based, human
Description: as §1, §2, §3, §4, §5, §6, §7

[9] = system: pancreatic cancer cell BxPC-3; assay: CCK-8 inhibition of proliferation, BxPC-3; format: cell-based, human
Description: as §1, §2, §3, §4, §5, §6, §7

[10] = Intravenous toxicity test in mice (administration for 7 days); format: in vivo
From the text: This test was used to investigate the toxic reactions after intravenous administration of compound C8 to normal KM mice for 7 consecutive days.
KM mice passing the quarantine control were randomized into 4 groups (3 mice/gender/group). The test compound and vehicle control were formulated according to Experimental example 2. The mortality, appearance, behavior, mental status, secretion and excreta etc. of the animals were observed every day for 7 consecutive days after the administration, and the animals were anatomized on day 8.

[11] = 115.38 μmol/kg i.v., 7 days, anatomy on day 8

CC(C)OC(=O)[C@H](C)N[P@](=O)(OC[C@H]1S[C@@H](n2ccc(N)nc2=O)[C@@H](F)[C@@H]1O)Oc1ccccc1 [Compound C8, (S)-isopropyl 2-(((S)-(((2R,3S,4S,5R)-5-(4-amino-2-oxopyrimidin-1(2H)-yl)-4-fluoro-3-hydroxytetrahydrothiophen-2-yl)methoxy)(phenoxy)phosphoryl)amino)propanoate]
inhibitory effect on gastric cancer cell NCI-N87 (in words) ([1]; FIG. 1: 5-10000 nM): potent inhibitory effects; also recorded: excellent inhibitory effects
IC50 ([1]; Homo sapiens, NCI-N87, CCK-8, 72 h incubation): 483 nM
dosage at which death of animals occurred ([2]; oral gavage): ~115 µmol/kg
Results: mortality (3 Male + 3 Female) ([2]; ~77 μmol/kg oral gavage): survived
Results: clinical symptoms (3 Male + 3 Female) ([2]; ~6 mg/kg (~12 μmol/kg) oral gavage): No abnormal symptoms
Results: clinical symptoms (3 Male + 3 Female) ([2]; ~20 mg/kg (~38 μmol/kg) oral gavage): No abnormal symptoms
TGI (%) ([3]; 190 μmol/kg i.v.): 109%
Body weight change ([3]; 190 μmol/kg i.v.): +8.1%
Tumor regression, CR (complete tumor regression) ([3]; 190 μmol/kg i.v.): 8/8 CR
TGI (%) ([3]; 190 μmol/kg p.o.): 110%
Body weight change ([3]; 190 μmol/kg p.o.): +8.1%
Tumor regression, CR (complete tumor regression) ([3]; 190 μmol/kg p.o.): 8/8 CR
Mortality ([4]; 190 μmol/kg i.v.): 0
TGI (%) ([4]; 190 μmol/kg i.v.): 111%
Body weight change ([4]; 190 μmol/kg i.v.): +7.4%
Tumor regression, CR (complete tumor regression) ([4]; 190 μmol/kg i.v.): 1/8 CR,
Tumor regression, PR (partial tumor regression) ([4]; 190 μmol/kg i.v.): 7/8 PR
Mortality ([4]; 190 μmol/kg p.o.): 0
TGI (%) ([4]; 190 μmol/kg p.o.): 113%
Body weight change ([4]; 190 μmol/kg p.o.): +8.9%
Tumor regression, CR (complete tumor regression) ([4]; 190 μmol/kg p.o.): 1/8 CR,
Tumor regression, PR (partial tumor regression) ([4]; 190 μmol/kg p.o.): 7/8 PR
TGI (%) ([5]; 0.02 mmol/kg p.o.): 25.6%
TGI (%) ([5]; 0.06 mmol/kg i.v.): 81.8%
TGI (%) ([5]; 0.06 mmol/kg p.o.): 79.1%
TGI (%) ([5]; 0.19 mmol/kg p.o.): 138.5%
inhibitory effect on colorectal cancer cell HCT-116 (in words) ([6]; FIG. 1: 5-10000 nM): potent inhibitory effects; also recorded: excellent inhibitory effects
IC50 ([6]; Homo sapiens, HCT-116, CCK-8, 72 h incubation): 485 nM
TGI (%) ([7]; 0.04 mmol/kg i.v.): 26.9%
TGI (%) ([7]; 0.12 mmol/kg i.v.): 74.9%
TGI (%) ([7]; 0.24 mmol/kg i.v.): 82.9%
inhibitory effect on colorectal cancer cell HCT-15 (in words) ([8]; FIG. 1: 5-10000 nM): potent inhibitory effects; also recorded: excellent inhibitory effects
IC50 ([8]; Homo sapiens, HCT-15, CCK-8, 72 h incubation): 1960 nM
inhibitory effect on pancreatic cancer cell BxPC-3 (in words) ([9]; FIG. 1: 5-10000 nM): potent inhibitory effects; also recorded: excellent inhibitory effects
IC50 ([9]; Homo sapiens, BXPC-3, CCK-8, 72 h incubation): 705 nM
body weight increase on day 8, female mice ([10]; 115.38 μmol/kg i.v., 7 days): 13.1%
body weight increase on day 8, male mice ([10]; 115.38 μmol/kg i.v., 7 days): 26.7%
leukocyte count decrease vs vehicle group, female [10, 11]: 45%
leukocyte count decrease vs vehicle group, male [10, 11]: 49%
platelet count decrease vs vehicle group, female [10, 11]: 43%
platelet count decrease vs vehicle group, male [10, 11]: 39%
symptoms observed on day 8 ([10]; compound C8 60.9 mg/kg (115.38 μmol/kg) i.v., 7 consecutive days): no relevant abnormalities were observed
